Results on nine molecules are retold here after PubChem BioAssay (NCI).

Some test systems named below: NCI-H460 lung; HOP-62 NSCLC; MOLT-4 leukemia; PC-3 prostate; SF-295 CNS; SK-MEL-2 melanoma; SF-539 CNS; MALME-3M melanoma; OVCAR-3 ovarian; SNB-19 CNS; MDA-MB-435.
What all share (experiment): NCI anticancer screen, dose series, 48 h

Molecules are shown by their SMILES. Several values for one entry are separate records, joined by “and”; a condition that tells them apart may be missing. Equal entries are not always repeated.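 Growth conditions: 96-well plates. Treatment: test compound, 48 hours, 5 concentrations. Analysis: linear interpolation between bracketing concentrations; unreached endpoints set to highest concentration. Here, GI50 denotes the concentration required for 50% inhibition of growth. TGI is the concentration that stops growth completely.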 Some results are limits rather than exact numbers.

As for `CSc1ccc2c(cc1=O)[C@@H](NC(=O)c1ccc(N)cc1)CCc1cc(O)c(O)c(O)c1-2`, the TGI in the test on NCI-H460 lung is 29.6 µM and 49.7 µM; in the test with HOP-62 NSCLC, 27.8 µM and 34.7 µM; in the test on MOLT-4 leukemia, above 100 µM; in the test with PC-3 prostate it was above 100 µM; in the test with SF-295 CNS it was 39.2 µM and 46.1 µM; in the test on SK-MEL-2 melanoma it was above 100 µM. Moreover, the TGI is 27.6 µM in the test with SF-539 CNS; above 100 µM in the test on MALME-3M melanoma; 40.8 µM and 19.5 µM in the test on OVCAR-3 ovarian; 61 µM and > 100 µM in the test with SNB-19 CNS; 51 µM and > 100 µM in the test on MDA-MB-435. Moreover, the GI50 in the test on SK-MEL-2 melanoma is 30.9 µM and 11.4 µM; with OVCAR-3 ovarian, 17.5 µM and 4.17 µM.

Take `Cn1cc(NC(=O)c2cc(NC(=O)CN=C(N)N)cn2C)cc1C(=O)NCCC(=N)N`: the TGI in the test on NCI-H460 lung, in the test on HOP-62 NSCLC, with MOLT-4 leukemia, with PC-3 prostate, in the test with SF-295 CNS and in the test with SK-MEL-2 melanoma was above 100 µM throughout. For the same molecule, the TGI in the test with SF-539 CNS, in the test with MALME-3M melanoma, in the test with OVCAR-3 ovarian, in the test with SNB-19 CNS and with MDA-MB-435 was above 100 µM throughout.

Turning to `c1ccc2c(c1)ccn2CCc1c[nH]c2ccccc12`, the TGI with NCI-H460 lung, in the test with HOP-62 NSCLC, with MOLT-4 leukemia, with PC-3 prostate, with SF-295 CNS and in the test with SK-MEL-2 melanoma was above 10 µM throughout. Further, the TGI in the test with SF-539 CNS, with MALME-3M melanoma, with OVCAR-3 ovarian, in the test with SNB-19 CNS and in the test with MDA-MB-435 was above 10 µM in each case.

As to `COc1ccc2ccccc2c1/C=C/C(=O)c1ccccc1`, the TGI with NCI-H460 lung came out at 3.76 µM; with HOP-62 NSCLC, 9 µM; in the test on MOLT-4 leukemia it was 6.78 µM; with PC-3 prostate, 13.9 µM; with SF-295 CNS, 15.6 µM; with SK-MEL-2 melanoma, 3.64 µM. The TGI in the test with SF-539 CNS stood at 7.23 µM; in the test with MALME-3M melanoma, 26.3 µM; in the test with OVCAR-3 ovarian, 7.23 µM; in the test with SNB-19 CNS, 12.4 µM; in the test on MDA-MB-435 it was 7.18 µM.

As for `COc1cc(Cn2c3c(c4cc(O)ccc42)Cc2ccccc2C3=O)cc(OC)c1`, the TGI with NCI-H460 lung was above 100 µM; in the test with HOP-62 NSCLC it was above 100 µM; in the test with MOLT-4 leukemia it was above 100 µM; in the test on PC-3 prostate it was above 100 µM; in the test on SF-295 CNS, 93.9 µM; in the test with SK-MEL-2 melanoma, above 100 µM. Besides, the TGI with SF-539 CNS, in the test with MALME-3M melanoma, with OVCAR-3 ovarian, in the test with SNB-19 CNS and in the test on MDA-MB-435 was above 100 µM in each case.

Take `O=c1cc(-c2ccc(F)cc2)[nH]c2ncc(Cl)cc12`: the TGI was above 100 µM in the test on NCI-H460 lung; above 93.2 µM in the test with HOP-62 NSCLC; above 85.6 µM with MOLT-4 leukemia; above 100 µM in the test on PC-3 prostate; 78.5 µM in the test on SF-295 CNS; above 100 µM in the test on SK-MEL-2 melanoma. The TGI is 97.8 µM in the test on SF-539 CNS; above 100 µM in the test with MALME-3M melanoma; above 70.5 µM with OVCAR-3 ovarian; above 100 µM in the test on SNB-19 CNS; 9.85 µM in the test with MDA-MB-435.

Regarding `COc1ccc(C(=C(Cl)c2ccccc2)c2ccc(OC)cc2)cc1`, the TGI in the test with NCI-H460 lung, in the test on HOP-62 NSCLC, in the test on MOLT-4 leukemia, in the test with PC-3 prostate, in the test on SF-295 CNS and in the test with SK-MEL-2 melanoma was above 100 µM each time. Also, the TGI in the test with SF-539 CNS, with MALME-3M melanoma, in the test on OVCAR-3 ovarian, in the test on SNB-19 CNS and in the test on MDA-MB-435 was above 100 µM each time.

Take `CC(=O)OCC12C(=O)C[C@@H](C)C3(CC(c4ccoc4)OC3=O)C1CCC(OC(C)=O)C21CO1` (stereo partly specified): the TGI in the test on NCI-H460 lung, in the test with HOP-62 NSCLC, in the test on MOLT-4 leukemia, with PC-3 prostate, with SF-295 CNS and in the test with SK-MEL-2 melanoma was above 100 µM in each case. The TGI in the test on SF-539 CNS, in the test with MALME-3M melanoma, with OVCAR-3 ovarian, in the test with SNB-19 CNS and in the test with MDA-MB-435 was above 100 µM in each case.

Regarding `Cc1ccc([N+](=O)[O-])cc1S(=O)(=O)Nc1ccc(C2=NNC(c3ccccc3)C2)cc1` (stereo unspecified), the TGI in the test with NCI-H460 lung is 37.6 µM; in the test on HOP-62 NSCLC, 27.2 µM; in the test with MOLT-4 leukemia, 39.8 µM; in the test on PC-3 prostate, above 100 µM; with SF-295 CNS it was 21.7 µM; in the test with SK-MEL-2 melanoma, 45.4 µM. In addition, the TGI in the test with SF-539 CNS was 89.2 µM; in the test with MALME-3M melanoma, 46 µM; with OVCAR-3 ovarian, 20.4 µM; in the test on SNB-19 CNS it was above 100 µM; in the test on MDA-MB-435, 44.6 µM.
